Experiments:
Assay in all cases: relative viability (nuclei count vs DMSO), 5 days (fraction); higher = more cells survive
Ibrutinib + Pemetrexed = compound: C=CC(=O)N1CCC[C@@H](n2nc(-c3ccc(Oc4ccccc4)cc3)c3c(N)ncnc32)C1 [Ibrutinib] + Nc1nc2[nH]cc(CCc3ccc(C(=O)N[C@@H](CCC(=O)O)C(=O)O)cc3)c2c(=O)[nH]1 [Pemetrexed] (partner 0.2 µM)
Outline: (§1)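 Cells from lung cancer lines were seeded into 1536-well plates and, one day later, dosed by pin tool. Treatments were either a single drug or a fixed dose of an anchor drug with five library-drug doses (not always all listed) in √10 steps. After 5 days, nuclei were stained in a one-step fixation (final 0.05% Triton X-100, 1% formaldehyde, 1 ug/ml Hoechst) and counted on 4× images, and relative viability is the treated-to-vehicle nuclei ratio, as the median of duplicate plates.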

BMX-IN-1 + Linsitinib = compound: C=CC(=O)Nc1cc(-n2c(=O)ccc3cnc4ccc(-c5ccc(NS(C)(=O)=O)cc5)cc4c32)ccc1C [BMX-IN-1] + C[C@]1(O)C[C@@H](c2nc(-c3ccc4ccc(-c5ccccc5)nc4c3)c3c(N)nccn32)C1 [Linsitinib] (partner 1 µM)
Outline: as §1

BMX-IN-1 + Phenformin = compound: C=CC(=O)Nc1cc(-n2c(=O)ccc3cnc4ccc(-c5ccc(NS(C)(=O)=O)cc5)cc4c32)ccc1C [BMX-IN-1] + N=C(N)NC(=N)NCCc1ccccc1 [Phenformin] (partner 250 µM)
Outline: as §1

PAC-1 + Tozasertib = compound: C=CCc1cccc(/C=N/NC(=O)CN2CCN(Cc3ccccc3)CC2)c1O [PAC-1] + Cc1cc(Nc2cc(N3CCN(C)CC3)nc(Sc3ccc(NC(=O)C4CC4)cc3)n2)n[nH]1 [Tozasertib] (partner 0.1 µM)
Outline: as §1

| Cell Line | relative viability (Ibrutinib + Pemetrexed; first compound 0.005 µM) | relative viability (Ibrutinib + Pemetrexed; first compound 0.01581 µM) | relative viability (Ibrutinib + Pemetrexed; first compound 0.05 µM) | relative viability (Ibrutinib + Pemetrexed; first compound 0.1581 µM) | relative viability (Ibrutinib + Pemetrexed; first compound 0.5 µM) | relative viability (BMX-IN-1 + Linsitinib; first compound 0.02 µM) | relative viability (BMX-IN-1 + Linsitinib; first compound 0.2 µM) | relative viability (BMX-IN-1 + Linsitinib; first compound 0.6325 µM) | relative viability (BMX-IN-1 + Linsitinib; first compound 2 µM) | relative viability (BMX-IN-1 + Phenformin; first compound 0.02 µM) | relative viability (BMX-IN-1 + Phenformin; first compound 0.2 µM) | relative viability (BMX-IN-1 + Phenformin; first compound 0.6325 µM) | relative viability (BMX-IN-1 + Phenformin; first compound 2 µM) | relative viability (PAC-1 + Tozasertib; first compound 0.02 µM) | relative viability (PAC-1 + Tozasertib; first compound 0.06325 µM) | relative viability (PAC-1 + Tozasertib; first compound 0.2 µM) | relative viability (PAC-1 + Tozasertib; first compound 2 µM) |
| --- | --- | --- | --- | --- | --- | --- | --- | --- | --- | --- | --- | --- | --- | --- | --- | --- | --- |
| 201T | 0.296 | 0.301 | 0.363 | 0.363 | 0.507 | 1.13 | 1.02 | 1.04 | 1.01 | 0.519 | 0.464 | 0.483 | 0.458 | 0.876 | 1 | 0.956 | 0.883 |
| A549 |  |  |  |  |  | 0.627 | 0.973 | 0.808 | 0.552 | 0.164 | 1.01 | 0.17 | 0.188 |  |  |  |  |
| A-427 | 0.986 | 0.995 | 0.961 |  | 1.02 | 1.19 | 1.09 | 1.14 | 1.12 | 0.192 | 0.324 | 0.348 | 0.37 | 0.176 | 0.209 | 0.231 | 0.2 |
| ABC-1 |  |  |  |  |  | 0.993 | 0.807 | 0.775 | 0.764 | 0.227 | 0.232 | 0.243 | 0.229 | 0.144 | 0.186 | 0.197 | 0.195 |
| BEN | 0.489 | 0.757 | 0.637 | 0.469 | 0.785 | 1.08 | 1.13 | 0.995 | 0.942 | 0.264 | 0.259 | 0.273 | 0.254 | 0.621 | 0.541 | 0.511 | 0.466 |
| CAL-12T | 1.26 | 1.19 | 1.12 | 1.26 | 1.27 | 0.849 | 0.811 | 0.932 | 1.01 | 0.59 | 0.544 | 0.579 | 0.54 | 0.265 | 0.315 | 0.327 | 0.293 |
| COR-L23 | 0.211 | 0.179 | 0.204 | 0.198 | 0.235 | 1.62 | 1.11 | 0.994 | 1.01 | 0.499 | 0.553 | 0.46 | 0.48 | 0.203 | 0.304 | 0.192 | 0.214 |
| COR-L 105 | 0.778 | 1.16 | 0.855 | 1.06 | 0.692 | 0.801 | 0.875 | 1.01 | 0.877 | 0.486 | 0.458 | 0.49 | 0.574 | 0.318 | 0.323 | 0.383 | 0.374 |
| Calu-6 |  |  |  |  |  | 1.05 | 0.984 | 0.998 | 1.03 |  |  |  |  |  |  |  |  |
| ChaGo-K-1 | 0.254 | 0.263 | 0.264 | 0.261 | 0.271 |  |  |  |  | 0.499 | 0.517 | 0.541 | 0.5 | 0.214 | 0.217 | 0.223 | 0.218 |
| EBC-1 |  |  |  |  |  | 1.08 | 0.802 | 0.983 | 1.04 |  |  |  |  |  |  |  |  |
| EKVX | 0.33 | 0.419 | 0.359 | 0.336 | 0.222 | 1.14 | 1.17 | 1.13 | 1.02 | 0.21 | 0.245 | 0.247 | 0.211 | 0.426 | 0.393 | 0.339 | 0.365 |
| EMC-BAC-2 | 0.527 | 0.449 | 0.541 |  | 0.714 | 0.916 | 0.782 | 0.84 | 0.802 | 0.553 | 0.573 | 0.56 | 0.515 | 0.297 | 0.263 | 0.265 | 0.274 |
| EPLC-272H | 0.317 | 0.325 | 0.412 | 0.268 | 0.344 | 1.19 | 1.35 | 1.42 | 1.01 | 0.263 | 0.339 | 0.345 | 0.281 | 0.257 | 0.314 | 0.273 | 0.278 |
| H3255 | 0.511 | 0.553 | 0.456 | 0.557 | 0.407 | 1.07 | 1.01 | 0.965 | 0.912 | 0.327 | 0.357 | 0.782 | 0.374 | 0.66 | 0.656 | 0.606 | 0.638 |
| HARA | 0.243 | 0.22 | 0.249 | 0.207 | 0.242 | 1.2 | 1.21 | 0.851 | 0.886 | 0.413 | 0.619 | 0.489 | 0.409 | 0.108 | 0.115 | 0.136 | 0.111 |
| HCC-15 | 0.238 | 0.223 | 0.238 | 0.235 | 0.322 | 0.918 | 0.984 | 0.899 | 0.821 | 0.501 | 0.591 | 0.531 | 0.506 | 0.398 | 0.458 | 0.449 | 0.378 |
| HCC-44 | 0.711 | 0.669 | 0.624 | 0.64 | 0.987 | 0.804 | 0.735 | 0.702 | 0.642 | 0.321 | 0.269 | 0.251 | 0.262 | 0.989 | 1.04 | 0.94 | 0.877 |
| HCC-78 |  | 0.84 | 0.892 | 0.879 | 0.93 | 0.572 | 0.571 | 0.582 | 0.643 | 0.726 | 0.761 | 0.834 | 0.697 | 0.486 | 0.399 | 0.496 | 0.342 |
| HCC-366 | 0.259 | 0.247 | 0.307 | 0.241 | 0.704 | 0.779 | 0.995 | 0.736 | 0.601 | 0.503 | 0.625 | 0.639 | 0.603 | 0.117 | 0.0944 | 0.121 | 0.0773 |
| HCC-827 | 0.22 | 0.248 | 0.24 | 0.246 | 0.168 | 1.05 | 1.01 | 0.999 | 0.969 | 0.342 | 0.42 | 0.4 | 0.421 | 0.397 | 0.401 | 0.4 | 0.421 |
